Measured values as given in US20100267697A1, “ION CHANNEL MODULATORS” (Wyeth, priority 2006, published 2010).
Where two headings read alike, the source gives them in different places.

Experiments:
Cav2.2 [1] = biological target: T1, Cav2.2 (Homo sapiens, UniProt Q00975); experiment: HEK assay (whole-cell patch clamp, transiently transfected HEK-293T/17 cells, pulses P1 and P5); format: cell-based; settings: holding potential −100 mV
T1 construct: expressed in transfected cells; host or cells: HEK-293T/17 (transient, FuGENE 6)
T1 sequence (Q00975 whole entry): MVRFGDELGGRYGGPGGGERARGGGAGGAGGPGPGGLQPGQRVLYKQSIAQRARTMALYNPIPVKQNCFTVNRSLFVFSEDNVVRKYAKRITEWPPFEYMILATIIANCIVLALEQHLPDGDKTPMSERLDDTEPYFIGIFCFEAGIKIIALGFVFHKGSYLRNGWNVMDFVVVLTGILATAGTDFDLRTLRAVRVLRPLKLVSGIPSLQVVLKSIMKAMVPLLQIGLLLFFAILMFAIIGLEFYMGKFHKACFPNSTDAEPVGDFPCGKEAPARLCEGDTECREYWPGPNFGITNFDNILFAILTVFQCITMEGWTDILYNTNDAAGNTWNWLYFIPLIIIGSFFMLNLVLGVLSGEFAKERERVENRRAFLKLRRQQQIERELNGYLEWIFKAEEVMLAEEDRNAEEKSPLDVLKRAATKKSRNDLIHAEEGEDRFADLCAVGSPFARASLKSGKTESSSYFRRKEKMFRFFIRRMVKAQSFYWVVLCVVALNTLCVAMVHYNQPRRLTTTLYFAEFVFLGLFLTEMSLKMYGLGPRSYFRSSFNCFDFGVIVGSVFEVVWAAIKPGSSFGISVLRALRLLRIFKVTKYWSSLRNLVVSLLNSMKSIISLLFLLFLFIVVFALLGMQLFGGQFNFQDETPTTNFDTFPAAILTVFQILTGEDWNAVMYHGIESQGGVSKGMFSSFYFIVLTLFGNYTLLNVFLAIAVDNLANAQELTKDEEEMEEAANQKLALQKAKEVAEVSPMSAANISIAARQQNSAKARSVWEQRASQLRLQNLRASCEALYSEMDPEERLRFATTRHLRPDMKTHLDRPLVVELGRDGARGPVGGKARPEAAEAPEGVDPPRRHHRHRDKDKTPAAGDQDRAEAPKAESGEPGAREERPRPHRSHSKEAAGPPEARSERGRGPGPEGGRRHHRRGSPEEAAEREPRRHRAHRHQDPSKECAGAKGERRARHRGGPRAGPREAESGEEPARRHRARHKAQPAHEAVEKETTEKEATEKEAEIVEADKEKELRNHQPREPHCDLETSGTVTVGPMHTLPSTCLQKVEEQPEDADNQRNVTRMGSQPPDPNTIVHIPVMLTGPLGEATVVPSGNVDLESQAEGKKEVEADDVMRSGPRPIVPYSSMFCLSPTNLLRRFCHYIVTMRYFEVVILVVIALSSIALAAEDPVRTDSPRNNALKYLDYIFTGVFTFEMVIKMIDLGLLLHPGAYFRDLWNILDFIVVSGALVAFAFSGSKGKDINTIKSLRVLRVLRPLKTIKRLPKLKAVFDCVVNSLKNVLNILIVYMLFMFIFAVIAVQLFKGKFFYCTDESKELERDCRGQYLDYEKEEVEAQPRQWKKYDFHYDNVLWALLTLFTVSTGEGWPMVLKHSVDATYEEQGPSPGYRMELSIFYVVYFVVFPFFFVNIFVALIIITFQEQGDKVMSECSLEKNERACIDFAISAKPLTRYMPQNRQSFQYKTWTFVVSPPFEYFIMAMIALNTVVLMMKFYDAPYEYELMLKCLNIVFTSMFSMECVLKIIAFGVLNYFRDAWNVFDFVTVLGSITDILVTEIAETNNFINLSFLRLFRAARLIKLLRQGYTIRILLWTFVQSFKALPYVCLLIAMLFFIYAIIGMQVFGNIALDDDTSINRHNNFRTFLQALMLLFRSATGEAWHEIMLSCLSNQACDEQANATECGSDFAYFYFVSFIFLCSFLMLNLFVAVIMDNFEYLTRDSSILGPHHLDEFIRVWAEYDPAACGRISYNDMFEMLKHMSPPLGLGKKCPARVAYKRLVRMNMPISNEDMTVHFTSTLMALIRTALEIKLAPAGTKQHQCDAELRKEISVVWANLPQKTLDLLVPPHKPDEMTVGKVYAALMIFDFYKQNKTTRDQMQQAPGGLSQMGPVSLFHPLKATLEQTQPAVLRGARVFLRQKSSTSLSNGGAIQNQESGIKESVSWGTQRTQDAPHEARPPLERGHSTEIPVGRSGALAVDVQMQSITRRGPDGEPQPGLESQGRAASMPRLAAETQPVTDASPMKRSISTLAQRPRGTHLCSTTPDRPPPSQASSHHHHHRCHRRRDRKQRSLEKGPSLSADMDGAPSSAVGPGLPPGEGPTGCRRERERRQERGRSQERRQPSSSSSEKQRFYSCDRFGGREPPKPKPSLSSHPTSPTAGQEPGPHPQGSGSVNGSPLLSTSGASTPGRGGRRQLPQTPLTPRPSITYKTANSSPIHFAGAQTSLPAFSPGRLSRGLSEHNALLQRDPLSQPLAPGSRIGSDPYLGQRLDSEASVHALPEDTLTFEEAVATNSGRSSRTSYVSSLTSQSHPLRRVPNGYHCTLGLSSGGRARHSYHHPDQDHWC
T1 sequence (P54284 whole entry partner): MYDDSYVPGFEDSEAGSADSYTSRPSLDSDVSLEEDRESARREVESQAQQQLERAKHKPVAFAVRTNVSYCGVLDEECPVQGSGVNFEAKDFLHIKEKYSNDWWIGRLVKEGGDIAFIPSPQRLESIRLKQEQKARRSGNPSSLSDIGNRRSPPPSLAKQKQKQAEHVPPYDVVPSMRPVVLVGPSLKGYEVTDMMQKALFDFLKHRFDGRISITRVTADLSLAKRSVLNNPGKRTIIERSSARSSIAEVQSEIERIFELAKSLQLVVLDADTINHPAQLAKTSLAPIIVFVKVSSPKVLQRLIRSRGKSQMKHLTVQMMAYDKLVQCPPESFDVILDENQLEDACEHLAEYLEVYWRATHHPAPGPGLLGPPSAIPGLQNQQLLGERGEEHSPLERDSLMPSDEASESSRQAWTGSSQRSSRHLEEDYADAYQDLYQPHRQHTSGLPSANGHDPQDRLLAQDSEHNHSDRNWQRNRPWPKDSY
T1 sequence (P54289 25-946 partner limits assumed): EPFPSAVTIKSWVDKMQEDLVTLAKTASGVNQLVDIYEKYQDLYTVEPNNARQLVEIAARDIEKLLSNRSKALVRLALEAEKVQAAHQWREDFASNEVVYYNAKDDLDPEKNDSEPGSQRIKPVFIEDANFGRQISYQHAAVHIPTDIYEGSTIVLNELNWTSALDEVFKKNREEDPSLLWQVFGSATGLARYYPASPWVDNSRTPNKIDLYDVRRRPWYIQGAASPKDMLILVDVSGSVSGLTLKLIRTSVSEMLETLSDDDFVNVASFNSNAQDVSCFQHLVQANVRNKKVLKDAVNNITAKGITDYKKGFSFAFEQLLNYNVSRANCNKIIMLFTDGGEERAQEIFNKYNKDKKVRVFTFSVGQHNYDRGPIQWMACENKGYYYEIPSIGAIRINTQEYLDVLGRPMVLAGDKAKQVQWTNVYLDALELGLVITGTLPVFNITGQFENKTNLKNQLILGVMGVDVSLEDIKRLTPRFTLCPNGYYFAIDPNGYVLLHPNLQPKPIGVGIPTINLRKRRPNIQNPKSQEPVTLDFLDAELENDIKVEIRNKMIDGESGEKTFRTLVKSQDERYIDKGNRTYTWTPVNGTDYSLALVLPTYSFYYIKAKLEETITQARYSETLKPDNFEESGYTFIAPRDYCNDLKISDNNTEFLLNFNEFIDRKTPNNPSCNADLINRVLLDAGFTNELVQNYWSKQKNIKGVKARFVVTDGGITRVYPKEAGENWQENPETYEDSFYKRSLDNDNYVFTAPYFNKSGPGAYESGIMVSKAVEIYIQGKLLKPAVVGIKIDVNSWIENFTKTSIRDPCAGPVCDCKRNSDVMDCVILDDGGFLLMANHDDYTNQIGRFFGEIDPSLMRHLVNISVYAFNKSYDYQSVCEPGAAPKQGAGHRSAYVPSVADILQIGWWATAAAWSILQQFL
T1 sequence (P54289 947-1103 partner limits assumed): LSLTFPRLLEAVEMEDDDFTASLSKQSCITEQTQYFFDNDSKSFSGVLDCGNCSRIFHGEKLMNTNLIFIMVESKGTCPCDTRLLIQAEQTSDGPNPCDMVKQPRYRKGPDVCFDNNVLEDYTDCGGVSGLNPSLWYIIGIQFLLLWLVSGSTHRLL
Method in brief: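 Whole-cell voltage clamp of HEK-293T/17 cells transiently transfected via FuGENE 6, then grown 24 h in 1% serum before recording. From −100 mV holding, trains of five 20–30 ms steps to about +10 mV at 5 Hz, repeated every 30 s; steady-state IC50s taken at first (P1) and fifth (P5) pulses to gauge use-dependent block.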

Cav2.2 [2] = biological target: Cav2.2 (UniProt Q02294); experiment: Oocyte assay (Xenopus oocyte heterologous expression, current at fifth pulse P5); format: cell-based; settings: Xenopus oocytes; fifth pulse (P5) of 5 Hz train, holding potential −100 mV
Method: The assay was performed on various calcium channels (e.g., Cav2.2 subfamily) whereby the modulation of the calcium channel was measured for each tested compound.

[3] = fifth pulse (P5) of 5 Hz train, read-out: HEK Cav2.2 P5 IC50
[4] = first pulse (P1) of 5 Hz train, read-out: HEK Cav2.2 P1 IC50

| SMILES | IC50 (Cav2.2 [1]; [3]) | IC50 (Cav2.2 [1]; [4]) | IC50 (Cav2.2 [2]) |
| --- | --- | --- | --- |
| CN(CCc1ccccn1)c1ccc(CN(C(=O)C(C)(C)C)c2ccc(F)cc2)cn1 [Compound 18, N-(4-Fluorophenyl)-2,2-dimethyl-N-{6-[methyl-(2-pyridin-2-yl-ethyl)-amino]-pyridin-3-ylmethyl}-propionamide] | 1.7 µM | 4 µM | 7.1 µM |
| CN(CCN1CCOCC1)c1ccc(CN(C(=O)C(C)(C)C)c2ccc(F)cc2)cn1 [Compound 20, N-(4-Fluorophenyl)-2,2-dimethyl-N-{6-[methyl-(2-morpholin-4-yl-ethyl)-amino]-pyridin-3-ylmethyl}-propionamide] | 5.2 µM | 22.2 µM | 35.5 µM |
| Cc1cc(F)ccc1N(Cc1ccc(N2CCN(C)CC2)nc1)C(=O)C(C)(C)C [Compound 21, N-(4-Fluoro-2-methyl-phenyl)-2,2-dimethyl-N-[6-(4-methyl-piperazin-1-yl)-pyridin-3-ylmethyl]-propionamide] | 2.7 µM | 10.5 µM | 18 µM |
| CN1CCCN(c2ccc(CN(C(=O)C(C)(C)C)c3ccc(F)cc3)cn2)CC1 [Compound 22, N-(4-Fluorophenyl)-2,2-dimethyl-N-[6-(4-methyl-[1,4]diazepan-1-yl)-pyridin-3-ylmethyl]-propionamide] | 5.7 µM | 27.8 µM | 18.3 µM |
| CCC(C)(C)C(=O)N(Cc1ccc(N(C)CCc2ccccn2)nc1)c1ccc(F)cc1 [Compound 24, N-(4-Fluorophenyl)-2,2-dimethyl-N-{6-[methyl-(2-pyridin-2-yl-ethyl)-amino]-pyridin-3-ylmethyl}-butyramide] | 0.6 µM | 2.9 µM | 3.8 µM |
| CC(C)(C)C(=O)N(Cc1ccc(N2CCN(c3ccccn3)CC2)nc1)c1ccc(F)cc1 [Compound 25, N-(4-Fluorophenyl)-2,2-dimethyl-N-[6-(4-pyridin-2-yl-piperazin-1-yl)-pyridin-3-ylmethyl]-propionamide] | 0.3 µM | 2.4 µM | 4.2 µM |
| CCC(C)(C)C(=O)N(Cc1ccc(N2CCN(c3ccccn3)CC2)nc1)c1ccc(F)cc1 [Compound 26, N-(4-Fluorophenyl)-2,2-dimethyl-N-[6-(4-pyridin-2-yl-piperazin-1-yl)-pyridin-3-ylmethyl]-butyamide] | 0.4 µM | 1.7 µM | 12.2 µM |
| CN(CCc1cccnc1)c1ccc(CN(C(=O)C(C)(C)C)c2ccc(F)cc2)cn1 [Compound 27, N-(4-Fluorophenyl)-2,2-dimethyl-N-{6-[methyl-(2-pyridin-3-yl-ethyl)-amino]-pyridin-3-ylmethyl}-propionamide] | 1.1 µM | 4.6 µM | 5.2 µM |
| CN(CCOc1ccccn1)c1ccc(CN(C(=O)C(C)(C)C)c2ccc(F)cc2)cn1 [Compound 29, N-(4-Fluorophenyl)-2,2-dimethyl-N-(6-{methyl-[2-(pyridin-2-yloxy)-ethyl]-amino}-pyridin-3-ylmethyl)-propanamide] | 1 µM | 5.2 µM | 8.7 µM |
| CC(C)c1ccccc1N(Cc1ccc(N2CCN(C)CC2)nc1)C(=O)C(C)(C)C [Compound 30, N-(2-Isopropyl-phenyl)-2,2-dimethyl-N-[6-(4-methyl-piperazin-1-yl)-pyridin-3-ylmethyl]-propionamide] | 2.7 µM | 18.9 µM | 23.6 µM |
| CCN(CC)c1ccc(CN(C(=O)C(C)(C)CC)c2ccc(F)cc2)cn1 [Compound 31, N-(6-Diethylamino-pyridin-3-ylmethyl)-N-(4-fluorophenyl)-2,2-dimethyl-butyramide] | 1.3 µM | 5.5 µM | 6.6 µM |
| Cc1cc(C)cc(N(Cc2ccc(N3CCN(C)CC3)nc2)C(=O)C(C)(C)C)c1 [Compound 32, N-(3,5-dimethylphenyl)-2,2-dimethyl-N-[6-(4-methyl-piperazin-1-yl)-pyridin-3-ylmethyl]-propionamide] | 2.6 µM | 24.5 µM | 21.2 µM |
| CC(C)(C)C(=O)N(Cc1ccc(N2CCC(N3CCOCC3)CC2)nc1)c1ccc(F)cc1 [Compound 33, N-(4-Fluorophenyl)-2,2-dimethyl-N-(4-morpholin-4-yl-3,4,5,6-tetrahydro-2H-[1,2′]bipyridinyl-5′-ylmethyl)-propionamide] | 11.5 µM | 37.6 µM | 22.9 µM |
| CC(C)(C)C(=O)N(Cc1ccc(N2CCC(N3CCCC3)CC2)nc1)c1ccc(F)cc1 [Compound 34, N-(4-Fluorophenyl)-2,2-dimethyl-N-(4-pyrrolidin-1-yl-3,4,5,6-tetrahydro-2H-[1,2′]bipyridinyl-5′-ylmethyl)-propionamide] | 2.4 µM | 5.5 µM | 19.6 µM |
| CCC(C)(C)C(=O)N(Cc1ccc(N2CCN(C)CC2)nc1)c1ccccc1C(C)C [Compound 35, N-(2-Isopropyl-phenyl)-2,2-dimethyl-N-[6-(4-methyl-piperazin-1-yl)-pyridin-3-ylmethyl]-butyramide] | 1.4 µM | 4.4 µM | 13.2 µM |
| CCN(CC)c1nc(CN(C(=O)C(C)(C)C)c2ccc(F)cc2)cs1 [Compound 64, N-(2-Diethylamino-thiazol-4-ylmethyl)-N-(4-fluorophenyl)-2,2-dimethyl-propionamide] | 2.4 µM | 6 µM | 18.3 µM |
| CC(C)(C)C(=O)N(Cc1ccc(N2CCCCC2)nc1)c1ccc(F)cc1 [Compound 70, N-(4-Fluorophenyl)-2,2-dimethyl-N-(3,4,5,6-tetrahydro-2H-[1,2′]bipyridinyl-5′-ylmethyl)-propionamide] | 1.9 µM | 12.1 µM | 9.8 µM |
| CN(C)c1ccc(N(Cc2csc(N(C)c3ccc(F)cc3)n2)C(=O)C(C)(C)C)cc1 [Compound 81, N-(4-Dimethylamino-phenyl)-N-{2-[(4-fluorophenyl)-methyl-amino]-thiazol-4-ylmethyl}-2,2-dimethyl-propionamide] | 0.6 µM | 2 µM | 1.7 µM |
| CCN(c1nc(CN(C(=O)C(C)(C)C)c2ccc(F)cc2)cs1)C1CC1 [Compound 83, N-[2-(Cyclopropyl(ethyl)amino)-thiazol-4-ylmethyl]-N-(4-fluorophenyl)-2,2-dimethyl-propionamide] | 1 µM | 3.3 µM | 7.1 µM |
| CCN(CC)c1ncc(CN(C(=O)C(C)(C)C)c2ccc(F)cc2)cn1 [Compound 84, N-(2-Diethylamino-pyrimidin-5-ylmethyl)-N-(4-fluorophenyl)-2,2-dimethyl-propionamide] | 1.2 µM | 4.3 µM | 15.6 µM |
| CN(C)c1ccc(N(Cc2cnc(N3CCCCC3)nc2)C(=O)C(C)(C)C)cc1 [Compound 85, N-(4-Dimethylamino-phenyl)-2,2-dimethyl-N-(2-piperidin-1-yl-pyrimidin-5-ylmethyl)-propionamide] | 1.9 µM | 7.4 µM | 16.2 µM |
| CN(c1ccccn1)c1nc(CN(C(=O)C(C)(C)C)c2ccc(F)cc2)cs1 [Compound 93, N-(4-Fluorophenyl)-2,2-dimethyl-N-[2-(methyl-pyridin-2-yl-amino)-thiazol-4-ylmethyl]-propionamide] | 0.4 µM | 0.8 µM | 22.8 µM |
| CN1CCN(c2ccc(CN(C(=O)C3CCCCC3)c3ccc(F)cc3)cn2)CC1 [Compound 104, Cyclohexanecarboxylic acid (4-fluorophenyl)-[6-(4-methyl-piperazin-1-yl)-pyridin-3-ylmethyl]-amide] | 2.5 µM | 14.1 µM | 22 µM |
| O=C(C1CCOC1)N(Cc1ccc(N2CCN(c3ccccn3)CC2)nc1)c1ccc(F)cc1 (stereo not drawn) [Compound 111, Tetrahydro-furan-3-carboxylic acid (4-fluorophenyl)-[6-(4-pyridin-2-yl-piperazin-1-yl)-pyridin-3-ylmethyl]-amide] | 2.1 µM | 18.6 µM | 23.2 µM |
